Assay type in all cases: functional
The target of experiment [1] is Platelet-derived growth factor receptor alpha (Homo sapiens, UniProt P16234). The experiment can be described thus: Navigating the Kinome. Panel member name: PDGFRA.
In experiment [2] the target is BDNF/NT-3 growth factors receptor (Homo sapiens, UniProt Q16620).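 Note: NTRK2 measured as one member of a broad kinome-wide kinase profiling panel.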
Experiment [3] deals with Ribosomal protein S6 kinase alpha-3 (Homo sapiens, UniProt P51812).
The target of experiment [4] is T1, Receptor-type tyrosine-protein kinase FLT3 (Homo sapiens, UniProt P36888).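 Note: FLT3 was tested as one member of a kinome-wide kinase panel.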
T1 sequence (P36888 whole entry): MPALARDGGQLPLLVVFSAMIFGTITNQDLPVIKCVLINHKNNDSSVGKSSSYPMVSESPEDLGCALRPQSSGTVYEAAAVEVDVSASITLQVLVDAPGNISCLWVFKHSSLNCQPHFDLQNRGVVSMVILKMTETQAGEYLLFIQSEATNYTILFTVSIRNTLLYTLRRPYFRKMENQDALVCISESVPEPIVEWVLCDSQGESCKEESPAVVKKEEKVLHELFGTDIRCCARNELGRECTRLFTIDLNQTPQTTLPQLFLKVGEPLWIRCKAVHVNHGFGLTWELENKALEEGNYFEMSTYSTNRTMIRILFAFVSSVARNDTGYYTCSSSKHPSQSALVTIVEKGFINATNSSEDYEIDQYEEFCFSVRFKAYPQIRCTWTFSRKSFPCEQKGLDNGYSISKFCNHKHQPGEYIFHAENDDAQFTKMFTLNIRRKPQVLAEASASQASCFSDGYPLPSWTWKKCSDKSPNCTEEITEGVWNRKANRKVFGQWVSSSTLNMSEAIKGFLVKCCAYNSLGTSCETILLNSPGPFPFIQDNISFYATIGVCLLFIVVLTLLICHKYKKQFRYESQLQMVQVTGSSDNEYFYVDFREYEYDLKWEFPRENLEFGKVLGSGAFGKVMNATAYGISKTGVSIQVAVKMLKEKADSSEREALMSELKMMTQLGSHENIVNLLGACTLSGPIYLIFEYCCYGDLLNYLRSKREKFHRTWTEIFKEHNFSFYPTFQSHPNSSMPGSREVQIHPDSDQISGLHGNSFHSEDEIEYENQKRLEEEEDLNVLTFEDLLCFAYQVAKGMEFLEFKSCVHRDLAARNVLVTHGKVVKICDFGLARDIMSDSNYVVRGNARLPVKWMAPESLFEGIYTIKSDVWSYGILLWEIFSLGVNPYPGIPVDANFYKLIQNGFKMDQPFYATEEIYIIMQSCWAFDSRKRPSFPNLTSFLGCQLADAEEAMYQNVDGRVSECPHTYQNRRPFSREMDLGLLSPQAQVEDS

The target in experiment [5] is Leukocyte tyrosine kinase receptor (Homo sapiens, UniProt P29376). The experiment can be described thus: Navigating the Kinome. Panel member name: LTK.
The target of experiment [6] is Dual specificity protein kinase CLK4 (Homo sapiens, UniProt Q9HAZ1).
In experiment [7] the target is Death-associated protein kinase 3 (Homo sapiens, UniProt O43293).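 Note: measured as one member of a kinome-wide profiling panel.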
Experiment [8] has as its target T2, Serine/threonine-protein kinase D3 (Homo sapiens, UniProt O94806).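 Note: determined within a kinase panel screen, with PRKCN as the panel member.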
T2 sequence (O94806 whole entry): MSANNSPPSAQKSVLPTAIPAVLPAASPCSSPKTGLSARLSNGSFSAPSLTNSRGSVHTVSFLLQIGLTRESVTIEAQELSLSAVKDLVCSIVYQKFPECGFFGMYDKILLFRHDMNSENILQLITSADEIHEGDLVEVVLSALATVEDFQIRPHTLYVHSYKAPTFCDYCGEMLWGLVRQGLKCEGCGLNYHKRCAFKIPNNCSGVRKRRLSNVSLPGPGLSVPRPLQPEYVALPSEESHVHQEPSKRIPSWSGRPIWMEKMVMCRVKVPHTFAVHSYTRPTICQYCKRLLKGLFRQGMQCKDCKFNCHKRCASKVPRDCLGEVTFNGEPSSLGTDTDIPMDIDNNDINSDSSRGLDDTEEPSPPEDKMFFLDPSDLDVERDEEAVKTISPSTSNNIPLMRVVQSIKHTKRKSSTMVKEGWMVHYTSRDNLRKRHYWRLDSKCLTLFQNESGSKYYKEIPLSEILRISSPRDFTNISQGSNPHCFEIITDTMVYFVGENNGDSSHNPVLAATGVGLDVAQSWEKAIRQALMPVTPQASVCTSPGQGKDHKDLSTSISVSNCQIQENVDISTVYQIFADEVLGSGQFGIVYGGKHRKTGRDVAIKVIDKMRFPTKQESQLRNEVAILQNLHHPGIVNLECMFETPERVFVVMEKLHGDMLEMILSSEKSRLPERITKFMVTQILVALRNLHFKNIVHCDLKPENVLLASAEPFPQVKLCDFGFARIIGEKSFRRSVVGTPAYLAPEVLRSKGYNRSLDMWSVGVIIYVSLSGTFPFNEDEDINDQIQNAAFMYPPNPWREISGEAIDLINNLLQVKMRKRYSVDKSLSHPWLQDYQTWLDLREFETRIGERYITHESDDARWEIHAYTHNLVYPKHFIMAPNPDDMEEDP

The target of experiment [9] is Calcium/calmodulin-dependent protein kinase type II subunit alpha (Homo sapiens, UniProt Q9UQM7). Description: Navigating the Kinome. Panel member name: CAMK2A.
A further experiment deals with Aurora kinase B (Homo sapiens, UniProt Q96GD4).
Experiment [10] deals with Tyrosine-protein kinase BTK (Homo sapiens, UniProt Q06187).
Experiment [11] has as its target Mitogen-activated protein kinase 9 (Homo sapiens, UniProt P45984).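 Note: value from a kinome panel profiling assay, MAPK9 panel entry.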
The target in experiment [12] is Rho-associated protein kinase 1 (Homo sapiens, UniProt Q13464).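 Note: measured within a broad kinome-wide panel profiling many kinases.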
In experiment [13] the target is Mitogen-activated protein kinase 8 (Homo sapiens, UniProt P45983).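 Note: value comes from one member of a kinome-wide kinase profiling panel.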
Experiment [14] deals with Dual specificity mitogen-activated protein kinase kinase 1 (Homo sapiens, UniProt Q02750). The experiment can be described thus: Navigating the Kinome. Panel member name: MAP2K1.

Molecules are shown by their SMILES. Activity calls are given as the source filed them.

Chain of Calcium/calmodulin-dependent protein kinase type II subunit alpha (Q9UQM7 whole entry): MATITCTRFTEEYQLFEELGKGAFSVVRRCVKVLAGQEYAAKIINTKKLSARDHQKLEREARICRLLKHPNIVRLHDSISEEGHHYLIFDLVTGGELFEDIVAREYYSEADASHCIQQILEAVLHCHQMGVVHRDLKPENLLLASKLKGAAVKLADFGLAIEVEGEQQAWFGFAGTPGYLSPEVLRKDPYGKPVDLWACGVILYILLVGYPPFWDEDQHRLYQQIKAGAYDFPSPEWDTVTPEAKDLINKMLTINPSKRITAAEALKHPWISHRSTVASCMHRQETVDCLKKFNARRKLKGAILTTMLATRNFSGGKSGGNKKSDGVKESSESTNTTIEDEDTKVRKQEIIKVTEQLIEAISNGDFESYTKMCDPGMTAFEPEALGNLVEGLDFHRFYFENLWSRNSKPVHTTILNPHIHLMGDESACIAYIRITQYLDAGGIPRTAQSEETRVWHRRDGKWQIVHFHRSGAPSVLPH
Chain of Platelet-derived growth factor receptor alpha (P16234 whole entry): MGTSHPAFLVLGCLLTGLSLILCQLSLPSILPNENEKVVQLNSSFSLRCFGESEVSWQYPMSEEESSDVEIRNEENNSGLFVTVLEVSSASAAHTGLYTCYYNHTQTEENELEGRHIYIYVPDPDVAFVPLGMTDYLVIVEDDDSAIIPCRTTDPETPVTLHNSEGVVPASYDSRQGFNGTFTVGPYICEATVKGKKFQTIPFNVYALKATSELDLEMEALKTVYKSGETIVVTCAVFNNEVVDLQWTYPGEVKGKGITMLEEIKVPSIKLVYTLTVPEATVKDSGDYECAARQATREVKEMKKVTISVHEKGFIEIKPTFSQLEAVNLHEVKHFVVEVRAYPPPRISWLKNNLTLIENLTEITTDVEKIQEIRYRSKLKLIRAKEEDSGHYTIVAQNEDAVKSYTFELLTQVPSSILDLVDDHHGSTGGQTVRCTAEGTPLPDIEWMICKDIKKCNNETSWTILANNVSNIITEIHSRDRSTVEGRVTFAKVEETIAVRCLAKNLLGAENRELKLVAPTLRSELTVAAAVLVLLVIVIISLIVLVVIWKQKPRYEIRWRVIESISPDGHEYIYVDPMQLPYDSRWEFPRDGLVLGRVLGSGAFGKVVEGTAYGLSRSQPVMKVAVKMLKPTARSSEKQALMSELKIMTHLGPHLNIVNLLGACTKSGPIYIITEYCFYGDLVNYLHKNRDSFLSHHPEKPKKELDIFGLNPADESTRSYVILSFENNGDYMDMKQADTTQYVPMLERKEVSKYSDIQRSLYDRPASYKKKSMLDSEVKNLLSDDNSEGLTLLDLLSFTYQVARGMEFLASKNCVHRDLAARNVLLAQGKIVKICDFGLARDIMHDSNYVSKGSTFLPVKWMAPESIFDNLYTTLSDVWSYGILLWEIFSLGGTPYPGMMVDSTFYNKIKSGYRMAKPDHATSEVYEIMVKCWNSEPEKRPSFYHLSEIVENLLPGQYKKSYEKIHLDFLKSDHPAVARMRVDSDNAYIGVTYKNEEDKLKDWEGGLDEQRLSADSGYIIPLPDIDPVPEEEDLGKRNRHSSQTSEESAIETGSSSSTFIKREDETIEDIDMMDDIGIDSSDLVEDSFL
Chain of Mitogen-activated protein kinase 9 (P45984 whole entry): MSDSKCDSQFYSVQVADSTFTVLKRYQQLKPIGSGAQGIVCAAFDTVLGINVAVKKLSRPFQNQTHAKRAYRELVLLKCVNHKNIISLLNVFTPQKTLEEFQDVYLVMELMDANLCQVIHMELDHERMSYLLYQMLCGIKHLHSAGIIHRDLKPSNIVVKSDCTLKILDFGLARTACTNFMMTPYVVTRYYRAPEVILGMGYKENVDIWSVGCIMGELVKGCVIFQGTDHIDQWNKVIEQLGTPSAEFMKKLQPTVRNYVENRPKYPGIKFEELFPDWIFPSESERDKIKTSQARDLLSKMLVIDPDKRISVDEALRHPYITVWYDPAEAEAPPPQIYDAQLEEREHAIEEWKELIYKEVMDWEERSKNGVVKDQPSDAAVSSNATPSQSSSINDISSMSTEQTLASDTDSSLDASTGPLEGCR
Chain of Mitogen-activated protein kinase 8 (P45983 whole entry): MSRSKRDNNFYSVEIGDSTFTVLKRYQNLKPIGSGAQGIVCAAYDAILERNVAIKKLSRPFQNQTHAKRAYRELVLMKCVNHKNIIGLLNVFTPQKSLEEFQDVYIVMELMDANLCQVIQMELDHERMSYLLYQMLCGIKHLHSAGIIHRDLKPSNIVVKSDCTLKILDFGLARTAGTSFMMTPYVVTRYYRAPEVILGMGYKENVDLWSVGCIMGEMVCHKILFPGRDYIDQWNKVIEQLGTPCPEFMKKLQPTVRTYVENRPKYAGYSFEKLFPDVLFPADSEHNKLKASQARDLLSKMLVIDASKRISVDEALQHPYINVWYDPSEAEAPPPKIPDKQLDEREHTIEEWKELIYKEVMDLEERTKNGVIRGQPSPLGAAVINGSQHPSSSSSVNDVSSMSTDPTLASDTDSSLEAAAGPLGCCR
Chain of Tyrosine-protein kinase BTK (Q06187 whole entry): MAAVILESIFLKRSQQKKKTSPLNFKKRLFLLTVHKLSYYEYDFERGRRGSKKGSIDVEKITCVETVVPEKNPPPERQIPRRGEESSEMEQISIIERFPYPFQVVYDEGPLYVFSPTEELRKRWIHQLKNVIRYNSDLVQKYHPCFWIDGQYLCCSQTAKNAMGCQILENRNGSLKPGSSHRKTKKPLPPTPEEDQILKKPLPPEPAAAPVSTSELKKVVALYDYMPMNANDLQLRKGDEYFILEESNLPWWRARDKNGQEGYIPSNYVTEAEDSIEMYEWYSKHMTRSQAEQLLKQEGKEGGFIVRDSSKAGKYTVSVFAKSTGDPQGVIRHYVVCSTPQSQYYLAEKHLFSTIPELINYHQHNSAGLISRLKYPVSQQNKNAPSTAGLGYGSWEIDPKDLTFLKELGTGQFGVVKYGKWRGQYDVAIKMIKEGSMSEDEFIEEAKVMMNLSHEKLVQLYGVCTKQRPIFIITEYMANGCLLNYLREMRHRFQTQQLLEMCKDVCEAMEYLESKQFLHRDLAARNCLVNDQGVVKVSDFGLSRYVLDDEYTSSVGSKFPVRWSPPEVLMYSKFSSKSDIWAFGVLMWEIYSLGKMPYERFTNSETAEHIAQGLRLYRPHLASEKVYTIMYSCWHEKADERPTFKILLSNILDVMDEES
Chain of Leukocyte tyrosine kinase receptor (P29376 whole entry): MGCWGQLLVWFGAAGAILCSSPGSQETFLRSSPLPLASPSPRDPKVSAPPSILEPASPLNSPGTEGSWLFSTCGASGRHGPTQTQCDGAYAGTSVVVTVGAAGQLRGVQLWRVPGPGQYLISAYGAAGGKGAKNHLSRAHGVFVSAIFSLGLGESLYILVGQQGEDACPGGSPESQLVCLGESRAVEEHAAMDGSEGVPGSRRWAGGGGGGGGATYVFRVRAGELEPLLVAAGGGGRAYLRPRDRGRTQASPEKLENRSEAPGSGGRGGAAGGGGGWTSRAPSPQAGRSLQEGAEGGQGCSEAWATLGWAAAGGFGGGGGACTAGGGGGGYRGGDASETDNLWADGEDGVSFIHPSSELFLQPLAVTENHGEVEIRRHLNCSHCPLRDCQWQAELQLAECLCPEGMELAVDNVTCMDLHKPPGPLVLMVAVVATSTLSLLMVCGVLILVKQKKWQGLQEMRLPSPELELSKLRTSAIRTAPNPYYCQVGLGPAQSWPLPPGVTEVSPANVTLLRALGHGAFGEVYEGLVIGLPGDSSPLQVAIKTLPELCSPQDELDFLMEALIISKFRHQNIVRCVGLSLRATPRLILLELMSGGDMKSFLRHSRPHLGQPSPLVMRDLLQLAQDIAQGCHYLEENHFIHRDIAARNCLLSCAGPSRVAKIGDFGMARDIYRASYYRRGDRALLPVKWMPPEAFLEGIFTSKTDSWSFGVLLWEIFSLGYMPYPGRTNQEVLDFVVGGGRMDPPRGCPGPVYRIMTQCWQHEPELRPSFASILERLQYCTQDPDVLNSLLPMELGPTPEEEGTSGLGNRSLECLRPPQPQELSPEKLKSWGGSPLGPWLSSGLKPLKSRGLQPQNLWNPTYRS
Chain of Death-associated protein kinase 3 (O43293 whole entry): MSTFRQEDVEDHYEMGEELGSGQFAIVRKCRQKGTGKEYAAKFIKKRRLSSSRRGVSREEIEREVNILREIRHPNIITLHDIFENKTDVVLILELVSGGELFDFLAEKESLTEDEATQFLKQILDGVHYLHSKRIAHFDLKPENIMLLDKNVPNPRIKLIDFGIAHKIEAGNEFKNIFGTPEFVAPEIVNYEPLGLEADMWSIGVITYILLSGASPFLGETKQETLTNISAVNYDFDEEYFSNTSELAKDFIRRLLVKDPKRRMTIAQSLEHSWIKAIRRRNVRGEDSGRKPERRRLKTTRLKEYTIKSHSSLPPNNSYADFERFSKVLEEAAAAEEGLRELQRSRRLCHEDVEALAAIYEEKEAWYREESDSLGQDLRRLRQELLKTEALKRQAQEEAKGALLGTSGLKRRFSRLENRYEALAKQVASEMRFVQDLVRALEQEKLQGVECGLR
Chain of Dual specificity mitogen-activated protein kinase kinase 1 (Q02750 whole entry): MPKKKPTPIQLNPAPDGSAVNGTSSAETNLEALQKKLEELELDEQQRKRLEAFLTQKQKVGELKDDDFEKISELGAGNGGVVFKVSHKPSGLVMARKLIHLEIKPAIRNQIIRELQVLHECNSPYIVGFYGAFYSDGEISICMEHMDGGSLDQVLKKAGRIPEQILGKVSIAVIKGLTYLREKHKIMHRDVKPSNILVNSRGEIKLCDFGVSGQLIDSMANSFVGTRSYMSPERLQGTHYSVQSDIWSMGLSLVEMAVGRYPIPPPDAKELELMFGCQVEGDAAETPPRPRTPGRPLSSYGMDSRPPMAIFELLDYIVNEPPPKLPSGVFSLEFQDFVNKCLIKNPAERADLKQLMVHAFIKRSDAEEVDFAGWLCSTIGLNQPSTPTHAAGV

What is called Ki is the equilibrium dissociation constant of an inhibitor or competing ligand from its target. In the case of `Cc1ccc(C)c(NC(=O)c2cc(-c3ccco3)nc3ccccc23)c1`, the Ki is 2 µM (active) in [1]; > 3.98 µM (inactive) in [2]; 3.16 µM (active) in experiment [3]; > 3.16 µM (inactive) in experiment [4]; 1 µM (active) in experiment [5]; 0.398 µM (active) in experiment [6]. Besides, the Ki in experiment [7] is 5.01 µM (active); in experiment [8], 1.58 µM (active); in [9] it was 3.16 µM (active); at Aurora kinase B it was 3.16 µM (active); in experiment [10], 3.98 µM (active); in experiment [11] it was > 3.98 µM (inactive). Moreover, the Ki was > 3.98 µM (inactive) in experiment [12], > 5.01 µM (inactive) in [13] and > 3.16 µM (inactive) in experiment [14].

For the compound `COc1ccc(C2=NNc3cccc4c(OC)ccc2c34)cc1OC`, the Ki in experiment [1] is 0.2 µM (active); in [2], > 3.98 µM (inactive); in [3] it was 1.58 µM (active); in [4] it was 2.51 µM (active); in [5], 0.0251 µM (active); in [6], 0.0631 µM (active). The Ki in experiment [7] was 0.794 µM (active); in [8], 0.398 µM (active); in experiment [9], > 3.98 µM (inactive); on Aurora kinase B, > 3.98 µM (inactive); in [10], 0.631 µM (active); in experiment [11], 3.16 µM (active). Besides, the values for the Ki in experiment [12], in experiment [13] and in experiment [14] were 0.501 µM (active), > 5.01 µM (inactive) and > 3.16 µM (inactive), respectively.

Consider `CN1CCC(c2c(O)cc(O)c3c(=O)cc(-c4ccccc4Cl)oc23)C(O)C1` (stereo not given), for which the Ki in experiment [1] is > 2.51 µM (inactive); in experiment [2], > 3.98 µM (inactive); in [3], 1.26 µM (active); in [4], > 2.51 µM (inactive); in experiment [5], 0.631 µM (active); in [6] it was 1.26 µM (active). Moreover, the Ki in experiment [7] is > 3.16 µM (inactive); in experiment [8], 0.316 µM (active); in experiment [9], > 3.98 µM (inactive); on Aurora kinase B, > 5.01 µM (inactive); in [10] it was > 3.98 µM (inactive); in [11] it was > 3.98 µM (inactive). In addition, the figures for the Ki in experiment [12], in [13] and in [14] were > 6.31 µM (inactive), > 3.98 µM (inactive) and > 3.16 µM (inactive), respectively.

The record behind these values is ChEMBL document CHEMBL1201862, “PubChem BioAssay data set” (2004).
